The term LD50 denotes the dose expected to kill half of the subjects tested.

Where two headings read alike, the source gives them in different places.

Consider one molecule from patent US20250002492A1, “COMPOSITIONS OF FOLATE ABSORPTION INHIBITORS AND METHODS THEREOF” (THE TEXAS A&M UNIVERSITY SYSTEM, priority 2023, published 2025).

Series [1] relates to S. cerevisiae strain BY4742. The experiment in a line: Replicative lifespan assay in yeast. In kind it is cell-based. As to the method:
The assays were performed in the standard S. cerevisiae strain BY4742 (MATα his3Δ1 leu2Δ0 lys2Δ0 ura3Δ0) on solid rich undefined media (YPD; 1% w/v yeast extract, 2% W/v peptone, 2% W/v dextrose, 2% w/v agar).
(§1) In the instant example, methotrexate (MTX), or the ATIC inhibitor (ATIC-Inh), was dissolved in dimethylsulfoxide (DMSO) and used at the final concentrations shown in FIGS. 2B-2D. The cell size measurements shown in FIG. 3 were also done in strain BY4742 in YPD.

In series [2] the test system is S. cerevisiae strain BY4742. The experiment in a line: Cell size measurement in yeast (Z2 Channelyzer). It is filed as cell-based. The settings on record: from 47 fL. As to the method:
as §1
Briefly, overnight cultures were diluted to about 5×10^5 cells/mL in fresh media, allowed to proliferate for 2-3 h at 30° C., and then methotrexate was added at the indicated final concentrations. 4-5 h later, cell size was measured with a Z2 Channelyzer.

The test system of the next series is yeast cells. Briefly: Yeast cell proliferation. In kind it is cell-based, S. cerevisiae. Particulars: low doses (0.5-10 μM); not shown.
Another series concerns C. elegans strain N2. Briefly: Lifespan assay in worms. It is filed as in vivo. An excerpt:
The ability of pharmacological or other interventions to extend the lifespan of different organisms is often conserved. For the instant example, the disclosed compounds can be tested for their ability to extend the lifespan of the worm model system Caenorhabditis elegans (N2 strain) [see, e.g., PMID: 19488025]. The organisms can be first exposed to the compounds as adults, 2-3 days after the egg stage until their death, on solid media containing the compounds at the desired concentration. The temperature can be kept constant at 20° C. throughout the assays. The bacteria used as food for the worms (Escherichia coli strain OP-50) can be dead (e.g., killed by lethal doses of ultraviolet radiation) to ensure that any effects on lifespan are not indirect, mediated through bacterial metabolism.
The assays were performed at 20° C. using C. elegans strain N2 and a bacterial strain (OP50) commonly used as food for the worms. Briefly, the assays were performed on solid agar nematode growth media (NGM) plates prepared fresh before each experiment. The bacterial lawn was exposed twice to a UV dose of 120 mJ/cm^2 using a UVC-515 Ultraviolet Multilinker (Ultra-Lum, Inc.). Streaking these UV-exposed bacteria to fresh LB agar plates (1% w/v tryptone, 0.5% w/v yeast extract, 1% w/v sodium chloride) produced no visible colonies. Methotrexate, or the ATIC inhibitor, was first dissolved in DMSO and then added to the media used to prepare the plates after autoclaving (the media were kept in a 50° C. water bath until the plates were poured). Mock-treated control plates contained only DMSO. At the start of each experiment, a sufficient number of eggs were collected from plates without any drugs and then placed on plates containing the indicated doses of each compound tested. After hatching and progression to the adult stage, animals were transferred to new plates (marked as the start of the lifespan assay) containing the drug tested and fluorodeoxyuridine (FUDR; dissolved in water), added at 50 μM to block hatching of new animals. The plates were scored at least every other day until all the worms died. If an animal responded to gentle touch, it was scored as alive, otherwise a death was recorded, and the animal was removed from the plate. Worms were transferred to fresh plates as needed (e.g., if there was evidence of microbial contamination, dryness/cracks on the agar surface, consumption of the bacterial lawn, or hatching of new animals that escaped the FUDR block). The reported lifespans were compiled from several independent experiments done over several months (9-10 months for the methotrexate experiments and 4-5 months for the ATIC inhibitor), each scored by multiple individuals (4-5 persons per experiment). No experiments were excluded from the analysis.

In a further series the test system is C. elegans. Particulars: 220 μM, treated at the adult stage; cited from earlier work.
In another series the test system is Swiss mice. The settings on record: 0-10 ppm in the diet in alternating weeks, male and female, 7 to 120 weeks of age; 5 of the 8 conditions tested; one case p=0.04; cited from earlier work.
The subject of another series is mice. Particulars: cited from earlier work.

With `CN(Cc1cnc2nc(N)nc(N)c2n1)c1ccc(C(=O)N[C@@H](CCC(=O)O)C(=O)O)cc1` [methotrexate, 4-amino-N10-methylpteroylglutamic acid], the “yeast replicative lifespan” value in series [1] (0.5-10 μM, p<0.05 log-rank test) is given as “increased yeast replicative lifespan”. This molecule came in with a maximal lifespan extension in series [1] (dose 1 μM) of about 15%. In addition, the “yeast replicative longevity” value in series [1] (higher concentrations (above 10 μM; 50-100 μM)) is listed as “did not extend replicative longevity”. The results for the cell size in series [2] (50 μM), in series [2] (100 μM) and in series [2] (concentrations up to 10 μM) were 56 fL, 64 fL and 52 fL, respectively. In addition, the “cell proliferation” value in the series on yeast cells is on record as “did not affect cell proliferation significantly”. This molecule also came in with a lifespan extension in the series with C. elegans strain N2 (1-3 μM, continuous exposure from embryo stage until death, p<2E-14 log-rank) of about 15%. For the same molecule, the “lifespan” value in the series on C. elegans strain N2 (higher doses 10-100 μM, not shown) is on record as “did not extend lifespan”; with C. elegans it was “did not extend their lifespan”. In addition, the “mean lifespan vs control group” value with Swiss mice is listed as “mean lifespan was longer than in the control group”. The results for the median lethal dose (LD50) with mice (5-week-old mice) and with mice (16-week-old mice) were 59 mg/kg and 284 mg/kg, respectively.
